These compounds were tested against Human neutrophil elastase (Homo sapiens (Human), UniProt P08246) (assay: Human Neutrophil Elastase Assay). Settings: substrate MeOSuc-Ala-Ala-Pro-Val-AMC 250 μM, pH 7.5, fluorescence.
Assay type: biochemical
Protocol: Human Neutrophil Elastase Assay
All other materials were of the highest grade commercially available.
The following buffers were used: Compound buffer: 100 mM Tris, 500 mM NaCl, adjusted to pH 7.5; Assay buffer: 100 mM Tris, 500 mM NaCl, adjusted to pH 7.5, containing 0.01% BSA.
Assay conditions: Test compounds were prediluted in DMSO and subsequently in compound buffer (5% DMSO final). […] After inactivation of the enzyme, fluorescence intensities were measured at 380 nm excitation and 460 nm emission wavelengths.
Each plate contains wells with a high value control (DMSO+enzyme+substrate) and wells with a low value control (DMSO+inactivated enzyme+substrate). IC50 values were estimated using a sigmoidal concentration response curve with variable slope. Means of low values were taken as 0%, means of high values as 100%. IC50 values of selected compound in the Neutrophil Elastase assay: […]

Chain of Human neutrophil elastase (P08246 30-267): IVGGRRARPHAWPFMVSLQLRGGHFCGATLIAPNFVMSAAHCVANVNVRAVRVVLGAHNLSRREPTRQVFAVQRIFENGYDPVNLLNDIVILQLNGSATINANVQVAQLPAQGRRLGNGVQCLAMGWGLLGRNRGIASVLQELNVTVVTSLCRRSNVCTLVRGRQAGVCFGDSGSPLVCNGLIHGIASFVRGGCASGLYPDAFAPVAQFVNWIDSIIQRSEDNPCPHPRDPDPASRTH

| Structure (SMILES) | IC50 |
| --- | --- |
| Cc1c(-c2cccc(C(F)(F)F)c2)c(=O)c(C(=O)NCc2ccc(C#N)cc2)cn1C(C)C [Example 3.5] | 0.064 µM |
| Cc1nnc(CNC(=O)c2cn(C3CCC3)c(C)c(-c3cccc(C(F)F)c3)c2=O)o1 [Example 24.2, 1-Cyclobutyl-5-(3-difluoromethyl-phenyl)-6-methyl-4-oxo-1,4-dihydro-pyridine-3-carboxylic acid (5-methyl-[1,3,4]oxadiazol-2-ylmethyl)-amide] | 0.055 µM |
| Cc1c(-c2ccnc(C(F)(F)F)c2)c(=O)c(C(=O)NCc2ccc(S(C)(=O)=O)cn2)cn1C(C)C [Example 17.3, 1-Isopropyl-2-methyl-4-oxo-2′-trifluoromethyl-1,4-dihydro-[3,4]bipyridinyl-5-carboxylic acid (5-methanesulfonyl-pyridin-2-ylmethyl)-amide] | 0.077 µM |
| Cc1c(-c2cccc(C(F)(F)F)c2)c(=O)c(C(=O)NCc2ccc(S(C)(=O)=O)cc2)cn1CC(F)F [Example 46, 1-(2,2-Difluoro-ethyl)-6-methyl-4-oxo-5-(3-trifluoromethyl-phenyl)-1,4-dihydro-pyridine-3-carboxylic acid 4-methanesulfonyl-benzylamide] | 0.046 µM |
| Cc1c(-c2ccnc(C(F)(F)F)c2)c(=O)c(C(=O)NCc2ccc([S+](C)[O-])cc2)cn1C(C)C (stereo not drawn) [Example 27.2, 1-Isopropyl-2-methyl-4-oxo-2′-trifluoromethyl-1,4-dihydro-[3,4′]bipyridinyl-5-carboxylic acid 4-methanesulfinyl-benzylamide] | 0.051 µM |
| Cc1c(-c2cccc(C(F)(F)F)c2)c(=O)c(C(=O)NCc2ccncc2)cn1C(C)C [Example 3.2] | 0.097 µM |
| Cc1c(-c2cccc(C(F)(F)F)c2)c(=O)c(C(=O)NCc2ccc(N3CCNC3=O)cc2)cn1C(C)C [Example 3.8] | 0.065 µM |
| Cc1c(-c2cccc(C(F)F)c2)c(=O)c(C(=O)NCc2cccc(S(C)(=O)=O)c2)cn1C(C)C [Example 4.9] | 0.063 µM |
| Cc1c(-c2cccc(C(F)F)c2)c(=O)c(C(=O)NCc2ccc3c(cnn3C)c2)cn1C(C)C [Example 4.7] | 0.045 µM |
| Cc1c(-c2cccc(C(F)(F)F)c2)c(=O)c(C(=O)NCc2ccc(S(C)(=O)=O)cn2)cn1CC1CCOC1 (stereo not drawn) [Example 2.4] | 0.073 µM |

Now those with a lower IC50, led by results:

| IC50 | Structure (SMILES) |
| --- | --- |
| 0.038 µM | Cc1nnc(CNC(=O)c2cn(C(C)C)c(C)c(-c3cccc(C(F)(F)F)c3)c2=O)o1 [Example 3.1, 1-Isopropyl-6-methyl-4-oxo-5-(3-trifluoromethyl-phenyl)-1,4-dihydro-pyridine-3-carboxylic acid (5-methyl-[1,3,4]oxadiazol-2-ylmethyl)-amide] |
| 0.03 µM | Cc1c(-c2cccc(C(F)(F)F)c2)c(=O)c(C(=O)NCc2ccc(S(C)(=O)=O)cn2)cn1CC(C)C [Example 2.3] |
| 0.017 µM | Cc1c(-c2cccc(C(F)F)c2)c(=O)c(C(=O)NCc2ccc(S(C)(=O)=O)cc2F)cn1C(C)C [Example 35, 5-(3-Difluoromethyl-phenyl)-1-isopropyl-6-methyl-4-oxo-1,4-dihydro-pyridine-3-carboxylic acid 2-fluoro-4-methanesulfonyl-benzylamide] |
| 0.011 µM | Cc1c(-c2cccc(C(F)(F)F)c2)c(=O)c(C(=O)NCc2ccc3c(c2)C=CS3(=O)=O)cn1C(C)C [Example 48, 1-Isopropyl-6-methyl-4-oxo-5-(3-trifluoromethyl-phenyl)-1,4-dihydro-pyridine-3-carboxylic acid (1,1-dioxo-1H-1λ^6-benzo[b]thiophen-5-ylmethyl)-amide] |
| 0.0078 µM | Cc1c(-c2cccc(C(F)F)c2)c(=O)c(C(=O)NCc2ccc3c(c2)C=CS3(=O)=O)cn1C(C)C [Example 50, 5-(3-Difluoromethyl-phenyl)-1-isopropyl-6-methyl-4-oxo-1,4-dihydro-pyridine-3-carboxylic acid (1,1-dioxo-1H-1λ^6-benzo[b]thiophen-5-ylmethyl)-amide1] |

Source: patent US9340507B2, “Substituted 4-pyridones and their use as inhibitors of neutrophil elastase activity” (Boehringer Ingelheim International GmbH, priority 2012, dated 2016)
